Reference: ChEMBL document CHEMBL1158540, “Heterocyclic cycloalkanol ethylamines as norepinephrine reuptake inhibitors” (Bioorg Med Chem Lett, 2010)

What was measured:
[1] = target: T1, Sodium-dependent noradrenaline transporter (Homo sapiens, UniProt P23975); assay: Inhibition of human NET transfected in MDCK-Net6 cells at 1 uM; format: cell-based
[2] = target: T1, Sodium-dependent noradrenaline transporter
[3] = target: T2, Sodium-dependent dopamine transporter (Homo sapiens, UniProt Q01959); assay: biochemical
Description: Displacement of [3H]WIN-35428 form human DAT expressed in CHO cell membranes

[4] = system: Rattus norvegicus; assay: Effect on temperature homeostasis in telemetric ovariectomy-induced thermoregulatory dysfunction rat model assessed as mean reduction of tail skin temperature from baseline at 30 mg/kg, ip after 6 hrs; format: functional; details: route intraperitoneal
[5] = system: Rattus norvegicus; assay: Effect on temperature homeostasis in telemetric ovariectomy-induced thermoregulatory dysfunction rat model assessed as maximum reduction of tail skin temperature from baseline at 30 mg/kg, ip fter 6 hrs; format: functional; details: route intraperitoneal
[6] = target: T2, Sodium-dependent dopamine transporter; assay: Inhibition of [3H]WIN-35428 binding to human DAT expressed in CHO membranes at 1000 nM; format: cell membranes
[7] = target: T3, Sodium-dependent serotonin transporter (Homo sapiens, UniProt P31645); assay: Inhibition of human SERT expressed in human JAR cells at 1 uM; format: cell-based
Target sequence in this assay (P31645 whole entry, looked up): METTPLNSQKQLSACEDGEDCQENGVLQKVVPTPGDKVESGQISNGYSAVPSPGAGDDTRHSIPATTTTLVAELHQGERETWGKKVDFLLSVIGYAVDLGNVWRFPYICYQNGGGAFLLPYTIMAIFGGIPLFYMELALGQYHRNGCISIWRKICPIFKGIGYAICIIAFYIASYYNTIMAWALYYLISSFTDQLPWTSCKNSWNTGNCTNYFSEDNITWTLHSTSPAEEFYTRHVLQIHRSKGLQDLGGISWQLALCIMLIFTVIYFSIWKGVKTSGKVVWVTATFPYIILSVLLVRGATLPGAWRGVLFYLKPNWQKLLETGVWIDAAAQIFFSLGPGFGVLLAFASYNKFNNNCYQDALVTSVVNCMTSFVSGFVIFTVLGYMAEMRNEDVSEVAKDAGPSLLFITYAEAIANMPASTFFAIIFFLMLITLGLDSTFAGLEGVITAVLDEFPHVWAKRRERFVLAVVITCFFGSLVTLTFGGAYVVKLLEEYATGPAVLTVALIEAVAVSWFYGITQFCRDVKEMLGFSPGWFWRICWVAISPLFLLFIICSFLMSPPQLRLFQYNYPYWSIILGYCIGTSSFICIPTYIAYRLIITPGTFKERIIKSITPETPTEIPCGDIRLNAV

[8] = system: Rattus norvegicus; assay: Effect on temperature homeostasis in telemetric ovariectomy-induced thermoregulatory dysfunction rat model assessed as maximum reduction of tail skin temperature from baseline at 30 mg/kg, ip fter 5.5 hrs; format: functional; details: route intraperitoneal
[9] = system: Rattus norvegicus; assay: Effect on temperature homeostasis in telemetric ovariectomy-induced thermoregulatory dysfunction rat model assessed as mean reduction of tail skin temperature from baseline at 30 mg/kg, ip after 5.5 hrs; format: functional; details: route intraperitoneal
[10] = system: Rattus norvegicus; assay: Effect on temperature homeostasis in telemetric ovariectomy-induced thermoregulatory dysfunction rat model assessed as maximum reduction of tail skin temperature from baseline at 30 mg/kg, po after 3 hrs; format: functional
[11] = system: Rattus norvegicus; assay: Effect on temperature homeostasis in telemetric ovariectomy-induced thermoregulatory dysfunction rat model assessed as mean reduction of tail skin temperature from baseline at 30 mg/kg, po after 3 hrs; format: functional
[12] = Half life in rat microsomes; format: ADME, Microsome
[13] = system: Rattus norvegicus; assay: Effect on temperature homeostasis in telemetric ovariectomy-induced thermoregulatory dysfunction rat model assessed as mean reduction of tail skin temperature from baseline at 30 mg/kg, sc after 6.5 hrs; format: functional; details: route subcutaneous
[14] = target: T3, Sodium-dependent serotonin transporter; format: cell-based, JAR
Target sequence in this assay (P31645 whole entry): as the sequence (P31645 whole entry, looked up) above

[15] = system: Rattus norvegicus; assay: Effect on temperature homeostasis in telemetric ovariectomy-induced thermoregulatory dysfunction rat model assessed as maximum reduction of tail skin temperature from baseline at 30 mg/kg, sc fter 6.5 hrs; format: functional; details: route subcutaneous

T1 sequence (P23975 whole entry): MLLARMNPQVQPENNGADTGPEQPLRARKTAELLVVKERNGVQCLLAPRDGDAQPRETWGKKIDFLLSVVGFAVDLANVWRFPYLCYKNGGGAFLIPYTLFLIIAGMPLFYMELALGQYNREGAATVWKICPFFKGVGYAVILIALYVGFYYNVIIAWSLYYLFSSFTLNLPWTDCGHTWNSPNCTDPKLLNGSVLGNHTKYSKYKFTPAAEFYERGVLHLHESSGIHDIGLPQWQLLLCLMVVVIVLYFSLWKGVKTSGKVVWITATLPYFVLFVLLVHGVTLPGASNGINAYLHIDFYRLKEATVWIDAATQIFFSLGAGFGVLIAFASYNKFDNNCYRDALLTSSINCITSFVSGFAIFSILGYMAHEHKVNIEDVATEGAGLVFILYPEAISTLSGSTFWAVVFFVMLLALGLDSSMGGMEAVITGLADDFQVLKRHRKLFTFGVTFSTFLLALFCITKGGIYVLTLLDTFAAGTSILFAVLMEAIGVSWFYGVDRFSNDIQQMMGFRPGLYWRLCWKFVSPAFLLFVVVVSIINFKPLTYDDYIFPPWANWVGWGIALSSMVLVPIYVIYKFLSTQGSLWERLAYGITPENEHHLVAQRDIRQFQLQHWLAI
T2 sequence (Q01959 whole entry): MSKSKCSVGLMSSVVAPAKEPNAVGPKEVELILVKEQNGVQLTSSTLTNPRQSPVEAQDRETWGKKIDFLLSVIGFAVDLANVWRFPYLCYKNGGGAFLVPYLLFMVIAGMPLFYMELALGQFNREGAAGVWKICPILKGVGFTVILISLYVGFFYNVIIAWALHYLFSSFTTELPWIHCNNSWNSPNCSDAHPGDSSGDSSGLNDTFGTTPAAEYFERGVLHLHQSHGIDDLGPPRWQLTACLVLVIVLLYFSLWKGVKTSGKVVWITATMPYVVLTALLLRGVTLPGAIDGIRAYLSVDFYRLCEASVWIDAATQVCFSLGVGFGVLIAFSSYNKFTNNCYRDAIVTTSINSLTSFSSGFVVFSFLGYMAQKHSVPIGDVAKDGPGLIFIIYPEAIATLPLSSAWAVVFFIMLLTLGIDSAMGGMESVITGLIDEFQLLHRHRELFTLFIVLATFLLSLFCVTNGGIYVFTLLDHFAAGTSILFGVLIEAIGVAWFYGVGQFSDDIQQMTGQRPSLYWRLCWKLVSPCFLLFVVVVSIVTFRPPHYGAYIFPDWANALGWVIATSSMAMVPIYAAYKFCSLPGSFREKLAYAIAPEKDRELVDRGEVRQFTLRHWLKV

Row | SMILES | INH [1] [µM] | IC50 [2] [nM] | IC50 [3] [nM] | INH [7] [µM] | further results
1 | CN1CCN(CC(c2csc(Cl)c2)C2(O)CCCCC2)CC1 (stereo not given) | 88 | 95 | 389 | – | Activity [4]: -2.75 °C; Activity [5]: -4.2 °C
2 | CN1CCN(C[C@H](c2cccc(Cl)c2)C2(O)CCCCC2)CC1 | 92 | 30 | 175 | – | –
3 | OC1(C(CN2CCNCC2)c2ccc(Cl)s2)CCCCC1 (stereo not given) | 50.8 | – | – | – | –
4 | OC1(C(CN2CCNCC2)c2cc3ccccc3s2)CCCCC1 (stereo not given) | 73 | 550 | – | 89 | inhibition [6]: 61%
5 | CN1CCN(C[C@@H](c2cccc(Cl)c2)C2(N)CCCCC2)CC1 | – | 576 | 30 | 32 | –
6 | OC1(C(CN2CCNCC2)c2cnc3ccccc3c2)CCCCC1 (stereo not given) | 19 | – | – | – | –
7 | CN1CCN(C[C@@H](c2csc(Cl)c2)C2(O)CCCCC2)CC1 | 0 | 18000 | > 6000 | – | –
8 | OC1(C(CN2CCNCC2)c2c[nH]c3ccccc23)CCCCC1 (stereo not given) | 21 | – | – | 90 | –
9 | OC1(C(CN2CCNCC2)c2csc(Cl)c2)CCCCC1 (stereo not given) | 86 | 100 | – | – | inhibition [6]: 43%

Continued, in another order:

Row | INH [1] [µM] | IC50 [2] [nM] | IC50 [3] [nM] | INH [7] [µM] | SMILES | further results
10 | 54 | – | – | – | OC1(C(CN2CCNCC2)c2cccs2)CCCCC1 (stereo not given) | –
11 | 32 | – | – | – | Cn1cc(C(CN2CCNCC2)C2(O)CCCCC2)c2ccccc21 (stereo not given) | –
12 | 91 | 57 | 212 | – | CN1CCN(C[C@H](c2csc(Cl)c2)C2(O)CCCCC2)CC1 | Activity [8]: -4.6 °C; Activity [9]: -3.3 °C
13 | 82 | 255 | – | 48 | OC1(C(CN2CCNCC2)c2csc3ccccc23)CCCCC1 (stereo not given) | inhibition [6]: 51%
14 | 55 | 720 | – | 34 | OC1(C(CN2CCNCC2)c2ccsc2Cl)CCCCC1 (stereo not given) | –
15 | – | 56 | 247 | – | CN1CCN(CC(c2cccc(Cl)c2)C2(O)CCCCC2)CC1 (stereo not given) | Activity [10]: -3.8 °C; Activity [11]: -3.1 °C; half-life [12]: < 1 min; Activity [13]: -2.6 °C; IC50 [14]: > 2000 nM; Activity [15]: -3.5 °C
16 | 94 | 225 | – | 12.2 | OC1(C(CN2CCNCC2)c2cc(Cl)sc2Cl)CCCCC1 (stereo not given) | –
